Patent US5360803A, “Composition and method for treating cancer” (Dan Farber Cancer Institute, priority 1992, dated 1994)
Where two headings read alike, the source gives them in different places.

Columns and labels:
[1] = system: human colon carcinoma CX-1; assay: anti-human colon carcinoma CX-1 activity using nude mice; assay type: in vivo, Swiss nu/nu mice (human tumor); details: Mus musculus, ip, 24 h, read-out: Tumor Inhibition
Excerpt: Human colon carcinoma cell line CX-1 has been chosen by the National Cancer Institute as a mode for cancer drug screening (NCI Protocol 3C2H2). It was established in culture from the surgical explant of the primary colon adenocarcinoma of a person with no previous chemotherapy. The cultured CX-1 cells, upon subcutaneous injection, can grow readily in nude mice as a moderately- to well-differentiated human colon carcinoma. CEA is expressed as expected for differentiated colon carcinoma cells. Abundant keratin, consistent with epithelial origin, is present. Increased uptake and prolonged retention of delocalized lipophilic cations are observed.
Swiss nu/nu mice obtained from Taconic Farm were housed in a pathogen-free environment. Tumors subcutaneously passaged in nude mice were excised under sterile conditions and converted to a single cell suspension using a metal grid with a 0.4 mm mesh. Red blood cells were lysed by incubation with 0.17M ammonium chloride at 4° C. for 20 minutes. Cells were scored for viability with trypan blue. Viable CX-1 cells (2.5 million) made up in 0.1 ml of […]. The mice were randomly allocated into a control group (five mice) and a treatment group (five mice per group). The drug treatment was commenced the next day. Doses and schedules were developed empirically and were based mainly on information on LD50 and LD1O obtained from preliminary toxicity studies. The control group received an equivalent volume of hydroxypropyl-β-cyclodextrin-5% glucose solution.
The pharmaceutical compositions tested comprised solutions in 5% glucose subjected to sonication at concentrations of 1 mg/ml. Those compounds which were not completely dissolved by this procedure were dissolved hydroxypropyl-β-cyclodextrin using the following method. Hydroxypropyl-β-cyclodextrin (45 g) was mixed with 100 ml of sterilized, double distilled water and stirred for four hours. Each of the compounds to be tested (20 mg) was mixed with 10 ml of hydroxypropyl-β-cyclodextrin solution and sonicated for 60 minutes in the dark. This solution was then diluted in 5% glucose to yield a final compound concentration of 0.5 mg/ml, and further sonicated for 60 minutes in the dark to assure that the compound was completely dissolved.
When the growth of tumors in the control group reached the exponential phase and the size of the tumor was palpable (usually 20 to 30 days after tumor implantation), the experiments were terminated. Tumors in each mouse were excised and weighed using an analytical balance. Total tumor weight in each group from five mice was calculated. Per cent tumor inhibition between the treated group and the control group was then calculated for each group.

CV-1 cells = assay: selective killing assay, colony number reduced to 50% of control, normal monkey kidney epithelial cell line CV-1; assay type: cell-based; details: 24 hours treatment; for IC50: Primates
Excerpt: (§1) The control received culture media only.

CX-1 cells = assay: selective killing assay, colony number reduced to 50% of control, human colon carcinoma cell line CX-1; assay type: cell-based; details: for Selectivity (ratio of IC50 for CV-1 and IC50 for CX-1): CV-1/CX-1; for CX-1 (IC50): Table III; for IC50: Homo sapiens;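 for all read-outs here: colonies stained with crystal violet and counted, control cells given medium alone, exposure at 37 °C, normal monkey kidney epithelial CV-1 cells as the non-cancer comparator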
CRL 1420 cells = assay: colony assay of Example 1 with human pancreatic carcinoma CRL 1420 cell line; assay type: cell-based; details: for Selectivity: CV-1/CRL-1420; for CRL-1420(IC50) / IC50: Table VII, human pancreatic carcinoma, 24 hours treatment; for IC50: Homo sapiens, 24 h;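 for all read-outs here: colony formation assay, cells exposed for 24 h then regrown 7 to 10 days without compound, colonies stained with crystal violet, control given medium alone, normal reference CV-1 monkey kidney epithelial cells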
Method: Human colon carcinoma cell line CX-1 or normal monkey kidney epithelial cell line CV-1 was chosen as representatives of cancer cells and normal cells, respectively. […] CX-1 cells (2,000 cells/well) and CV-1 cells (1,000 cells/well) were plated in 24-well plastic culture plates. […] The control received culture media only. Cells were treated with compounds of General Formulas (I) to (V) at 37° C. for 24 hours. After rinsing with fresh culture medium three times, the cells were further incubated at 37° C. for 7 to 10 days. Cell colonies were fixed and stained with 2% crystal violet in 70% ethanol for 10 minutes and rinsed in water. […] The selectivity is defined as the ratio of IC50 for CV-1 and IC50 for CX-1.

human melanoma LOX = assay: survival of nude mice implanted with human melanoma LOX; assay type: in vivo, male athymic Swiss nu/nu mouse (human tumor); details: Mus musculus, ip, 24 h, read-out: T/C; for response vs control in vivo at 3 mg/kg: 3 mg/kg i.p. on day 1, 4, 8, 10, 12
Method: LOX, a human melanoma cell line, grown subcutaneously in nude mice was excised, trypsinized to yield a single cell suspension using a metal grid with a […] mesh. […] Five million viable trypan blue negative cells made up in 0.1 ml of Dulbecco modified Eagle medium (DMFE) were injected into the peritoneal cavity of a male athymic Swiss nu/nu mouse. The control group and each treatment group consisted of 5 to 10 mice. Treatment was commenced the following day by intraperitoneal injection.
Ten control mice received 0.25 ml of 2% dextrose on these days the treated groups were injected with the compounds of this invention. […] T/C is the ratio, expressed as a percentage of the mean survival age of the treated group to the mean survival age of the untreated control group.

EJ cells = assay: colony assay of Example 1 with human bladder carcinoma EJ cell line; assay type: cell-based; details: for Selectivity: CV-1/EJ; for IC50: EJ;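 for all read-outs here: colony formation assay with 24 h compound exposure at 37 °C, then 7–10 days drug-free regrowth, colonies stained with crystal violet, controls given medium alone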
MCF-7 cells = assay: colony assay of Example 1 with human breast carcinoma MCF-7 cell line; assay type: cell-based; details: for Selectivity: CV-1/MCF-7; for MCF-7(IC50) / IC50: Table VI, human breast carcinoma, 24 hours treatment
Excerpt: as §1

LOX cells = assay: colony assay of Example 1 with human melanoma LOX cell line; assay type: cell-based; details: for Selectivity: CV-1/LOX; for LOX(IC50) / IC50: Table V, human melanoma, 24 hours treatment; for IC50: LOX;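 for all read-outs here: colony formation assay with 24 h exposure at 37 °C, then 7 to 10 days of regrowth, crystal violet staining of colonies, control wells given medium alone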
[2] = Table III, normal monkey kidney epithelial cells, colony count after 7 to 10 days
[3] = human colon carcinoma, 24 hours treatment, colony count after 7 to 10 days
[4] = 5 mg/kg i.p. on day 1, 4, 8, 11, 15
[5] = CV-1, Table III, normal monkey kidney epithelial cells, colony count after 7 to 10 days
[6] = Homo sapiens, 24 h, Table IV, human bladder carcinoma, 24 hours treatment
[7] = CX-1, Table III, human colon carcinoma, 24 hours treatment, colony count after 7 to 10 days
[8] = 5 mg/kg i.p. on day 1, 3, 4, 6, 8, 10, 13
[9] = Table IV, human bladder carcinoma, 24 hours treatment

SMILES | CV-1 (IC50) (CV-1 cells; [2]) [µg/mL] | Selectivity (ratio of IC50 for CV-1 and IC50 for CX-1) (CX-1 cells) | Selectivity (CRL 1420 cells) | CRL-1420(IC50) (CRL 1420 cells) [µg/mL] | IC50 (CV-1 cells; CV-1, 24 h, Table V) [µg/mL] | IC50 (CV-1 cells; CV-1, 24 h, Table VI) [µg/mL] | IC50 (CV-1 cells; CV-1, 24 h, Table VII) [µg/mL] | IC50 (CV-1 cells; [5]) [µg/mL] | Selectivity (EJ cells) | IC50 (EJ cells; [6]) [µg/mL] | Selectivity (MCF-7 cells) | Selectivity (LOX cells) | IC50 (CV-1 cells; CV-1, 24 h, Table IV) [µg/mL] | IC50 (CX-1 cells; [7]) [µg/mL] | IC50 (MCF-7 cells; Homo sapiens, MCF7, 24 h) [µg/mL] | IC50 (LOX cells; Homo sapiens, 24 h) [µg/mL] | also measured
CCn1c(=Cc2oc3ccccc3[n+]2CC)sc(=C2Sc3ccccc3N2C)c1=O [Compound 28] | 7 | 175 |  |  |  |  |  |  |  |  |  |  |  |  |  |  | inhibition in vivo at 5 mg/kg ([1]; 5 mg/kg i.p. on day 1, 4, 8, 12, 16, 21): 68.8%; CX-1 (IC50) (CX-1 cells; [3]): 0.04 µg/mL
CCn1c(=Cc2sc3ccccc3[n+]2CC)sc(=C2Sc3ccccc3N2C)c1=O [Compound 2] |  | 333 | 1000 | 0.01 | 10 | 10 | 10 | 10 | 200 | 0.02 | 111 | 667 |  |  |  |  | response vs control in vivo at 5 mg/kg (human melanoma LOX; [4]): 163%; CV-1 (IC50) (CV-1 cells; Table IV): 4 µg/mL; IC50 (CX-1 cells; CX-1): 0.03 µg/mL; MCF-7(IC50) (MCF-7 cells): 0.09 µg/mL; LOX(IC50) (LOX cells): 0.015 µg/mL
CCn1c(=Cc2sc3c4ccccc4ccc3[n+]2CC)sc(=C2Sc3ccc4ccccc4c3N2C)c1=O [Compound 82] |  | 400 | 1333 | 0.015 | 20 | 20 | 20 | 20 | 1333 | 0.015 | 312 | 312 | 20 | 0.05 | 0.064 | 0.064 | response vs control in vivo at 5 mg/kg (human melanoma LOX; [4]): 142%
CN1C(=c2sc(=Cc3oc4ccccc4[n+]3C)n(C)c2=O)Sc2ccccc21 [Compound 57] | 6 | 120 |  |  |  |  |  |  |  |  |  |  |  | 0.05 |  |  | inhibition in vivo at 10 mg/kg ([1]; 10 mg/kg i.p. on day 1, 2, 5, 6, 7, 8): 66.3%; response vs control in vivo at 5 mg/kg (human melanoma LOX; 5 mg/kg i.p. on day 1, 2, 3, 6, 7, 8, 9, 10, 14): 163%
CCn1c(=Cc2oc3ccc4ccccc4c3[n+]2CC)sc(=C2Sc3ccccc3N2C)c1=O [Compound 337] |  | 100 |  |  | 8 | 8 |  | 8 | 267 | 0.03 | 160 | 800 | 8 | 0.08 | 0.05 | 0.01 | response vs control in vivo at 5 mg/kg (human melanoma LOX; [8]): 137%
CCn1c(=Cc2sc3ccccc3[n+]2CC)sc(=C2Sc3ccccc3N2C)c1=O [Compound 336] |  |  | 667 | 0.03 |  |  |  |  | 667 |  | 100 | 4000 |  |  |  |  | response vs control in vivo at 5 mg/kg (human melanoma LOX; [8]): 188%; IC50 (CV-1 cells; CV-1, Table IV): 20 µg/mL; IC50 (CV-1 cells; CV-1, Table V): 20 µg/mL; IC50 (EJ cells; [9]): 0.03 µg/mL; IC50 (MCF-7 cells; MCF7): 0.2 µg/mL; IC50 (LOX cells): 0.005 µg/mL
CCn1c(=Cc2cc[n+](CC)c3ccccc23)sc(=C2C=Cc3ccccc3N2C)c1=O [Compound 232] |  |  | 200 |  | 6 | 6 | 6 |  | 120 | 0.05 | 150 | 300 | 6 |  | 0.04 | 0.02 | IC50 (CRL 1420 cells): 0.03 µg/mL; response vs control in vivo at 3 mg/kg (human melanoma LOX): > 270%
CCn1c(=CC2=[N+](CC)CCS2)sc(=C2Sc3ccccc3N2C)c1=O [Compound 335] | 26 | 200 | 500 | 0.04 |  |  |  |  | 200 |  | 100 | 667 |  |  |  |  | response vs control in vivo at 5 mg/kg (human melanoma LOX; 5 mg/kg i.p. on day 1, 5, 8, 11, 14): 189%; CV-1 (IC50) (CV-1 cells; Table IV): 20 µg/mL; CV-1 (IC50) (CV-1 cells; Table V): 20 µg/mL; CV-1 (IC50) (CV-1 cells; Table VI): 20 µg/mL; CV-1 (IC50) (CV-1 cells; Table VII): 20 µg/mL; EJ (IC50) (EJ cells; [9]): 0.1 µg/mL; CX-1 (IC50) (CX-1 cells; [3]): 0.1 µg/mL; MCF-7(IC50) (MCF-7 cells): 0.2 µg/mL; LOX(IC50) (LOX cells): 0.03 µg/mL
CCn1c(=CC2=[N+](CC)CCS2)sc(=C2Oc3ccc4ccccc4c3N2C)c1=O [Compound 215] |  | 200 | 222 |  | 20 | 20 | 20 | 10 |  |  | 200 | 500 |  | 0.05 | 0.1 | 0.04 | IC50 (CRL 1420 cells): 0.09 µg/mL; response vs control in vivo at 3 mg/kg (human melanoma LOX): 167%
CCn1c(=Cc2oc3ccc(-c4ccccc4)cc3[n+]2CC)sc(=C2Sc3ccccc3N2C)c1=O [Compound 203] |  |  |  |  |  |  |  |  |  |  |  |  |  |  |  |  | inhibition in vivo at 5 mg/kg ([1]; 5 mg/kg i.p. on day 1, 5, 8, 11): 71.9%; response vs control in vivo at 5 mg/kg (human melanoma LOX; 5 mg/kg i.p. on day 1, 5, 9, 13): 139%
